This is an account of results in patent US5980913A, “Peptides having immunomodulatory activity” (Biochem Pharma, Inc., priority 1994, dated 1999).

Structures are written as SMILES. Where a SMILES comes first, the peptide text is derived from it. [ ]: non-standard residue; d: D form.

For test [1], the system named is T cells. Put plainly: Activation of T cells by mitogenic proliferation (ConA, PHA). The settings on record: concentration not given; 0 not defined. It is filed as cell-based, C57BL/6 mice. An excerpt: c) Activation of T or B cells by Mitogenic Proliferation
A mitogenic lectin (mitogen) is a glycoprotein which binds and cross-links specific cells surface carbohydrate determinants, and will polyclonally stimulate lymphoid cells. Lymphocyte activation by either antigens or mitogens results in intracellular changes and the subsequent development into a lymphoblast. Mitogenic stimulation of lymphocytes in vitro is believed to mimic the series of events which occur in vivo following their stimulation by specific antigens. PHA and ConA; PWM and LPS mitogens can be used as a measurement of T cell and B cell activity, respectively. Briefly, the spleen mononuclear leukocytes from C57BL/6 mice are incubated in the presence or absence of mitogens with or without candidate drugs. After 72 hours or 5 days, ^3 H-thymidine incorporation is recorded as an indication of cell proliferation.
Lymphocytes were isolated from mice spleen or human blood in accordance to methods well known in the art. 100 μl of cell suspension of 2×10^6 cells/ml was added per well (2x10^5 cells/well) and incubated in the presence of lectin at the following concentrations:
PHA=0.01% to 0.001% final concentration
Cells were incubated for 3 days with PHA or ConA, or 5 days with PWM or LPS. 1 μCi of tritiated thymidine was added to each well for the last 6 hours (or 0.5 μCi for 18 hrs). The cells were harvested in a cell Harvester (Tortech®) and counted in a Beta counter.

For test [2], the system named is P815 target cells. Description: Cytotoxic T lymphocytes (CTL) assay, 51Cr release, after 5 days mixed culture with drug. The format is cell-based, C57BL/6 mice. From the text: 1. Cytotoxic T Lymphocytes (CTL) Mixed Lymphocyte Reaction (MLR) and Mitogenic Response Assays
The protocols used are described in Hudson L., Haay F., Pratical immunology, 3rd edition, Blackwell, Scientific publications, Oxford 1989, p. 158-162, and p.447.
Lymphocytes were isolated from C57BL/6 mice and DBA/2 mice in accordance to techniques well known in the art. Cell concentration was adjusted to 10×10^6 cell/ml for each assay. The cells isolated from DBA/2 mice were irradiated with 3000 Rads.
In a 6 well plate, each well was set up with:
The cells were incubated for five days at 37° C. in 5% CO2, after which CTL and MLR assays were performed.
a) Cytotoxic T Lymphocytes (CTL)
P815 target cells were labelled with Cr^51 (0.1 mCi). After labelling, the cells were washed three times and resuspended to a concentration of 5×10^4 cells/ml in media. p T cells were then counted and diluted to obtain a concentration of 2.5×10^6 cells/ml, and then further diluted to obtain the following effector:target ratios:
100 μl of target cells+100 μl of CTLs were incubated for 4 hours. In parallel wells, 100 μl of target cells+100 μl of media were incubated for spntaneous release. After incubation, cells were centrifuged and 100 μl of supernatant was then counted using a gamma counter.
Results are expressed as % specific ^51 Cr release= [formula] where ER=experimental release, SR=spontaneous releaase, and
0 represents less than 20%, + represents 20-40%, ++ represents 40-60%, +++ represent 60-80%, and ++++ represents 80% and over.

As to `NCCCC[C@H](N)C(=O)N[C@@H](CC(N)=O)C(=O)N1CCC[C@H]1C(=O)N[C@@H](Cc1ccc(O)cc1)C(=O)O` [PEPTIDE #1, H-Lys-Asn-Pro-Tyr-OH] (H-KNPY-OH), in test [1], the “Activation of T Cells, ConA” value worked out at 0 and the “Activation of T Cells, PHA” value was 0. Further, in test [2] (10^-7 M), the “CTL, % augmentation compared to IL-2 (IL-2 is 100%)” value is given as “++ (++ represents 40-60%)”. Moreover, the “stimulation of CTL in vitro (in words)” value in test [2] (summary of Table 1) is on record as “stimulates CTL's”.
As to `NCCCC[C@@H](N)C(=O)N[C@@H](CC(N)=O)C(=O)N1CCC[C@H]1C(=O)N[C@@H](Cc1ccc(O)cc1)C(=O)O` [PEPTIDE #5, H-(D-Lys)-Asn-Pro-Tyr-OH] (H-[dK]NPY-OH), in test [1], the “Activation of T Cells, ConA” value is given as 0 and the “Activation of T Cells, PHA” value was 0. Also, in test [2] (10^-9 M), the “CTL, % augmentation compared to IL-2 (IL-2 is 100%)” value was “++++ (++++ represents 80% and over)”.
